In assay [1] the test system is A2058 human melanoma cells. Nature of the assay: Cell migration test (LPA-induced, Chemo-Tx). The class given is cell-based. To be noted: LPA 100 nM, 3 hours, read-out: IC50: concentration of the test compound which inhibits the cell migration activity of LPA by 50%. The essentials: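 A2058 cells, serum-starved 24 h, pretreated 15 min at 37° C with compound (0.5% DMSO final). Migration over 3 h at 37° C through fibronectin-coated filters toward 100 nM LPA (final). Migrated cells stained, absorbance at 570 nm; IC50 from non-linear regression.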

The subject of assay [2] is LPA-induced histamine release. Nature of the assay: LPA-induced histamine release test in mouse. The class given is in vivo. The settings on record: male CD1 mice; oral dose of 10 mg/kg; LPA 300 μg/mouse via tail vein 4 hours after administration; blood 2 minutes after LPA; read-out: efficacy rate (rate of individuals which showed the inhibition rate of 80% or more of plasma histamine). How it is done:
LPA-Induced Histamine Release Test in Mouse
LPA-induced histamine release test in mouse was carried out according to a method by Swaney et al. (The Journal of Pharmacology and Experimental Therapeutics, 336 (2011), pages 693-700). The test compound was suspended in 0.5% methylcellulose solution (133-14255, Wako), and orally administered to male CD1 mice (body weight: 30 to 40 g, supplied by Charles River Laboratories Japan) at a dose of 10 mL/kg. 4 hours after administration, LPA (857130P, Avanti) dissolved in a 0.1% BSA-containing PBS was administered via the tail vein (300 μg/mouse). Immediately, the mouse was anesthetized with isoflurane, and blood was collected via a vein 2 minutes after the administration of LPA. The blood was put into a test tube containing EDTA, and centrifuged at 4° C., 2,000×g, for 10 minutes to obtain the plasma.
The histamine concentration in the plasma was measured by EIA kit (62HTMPEB, Cisbio Bioassays).

For a further assay, the target named is T1, human LPA1 receptor (Homo sapiens, UniProt Q92633).
T1 construct: purchased ChanTest A324; host or cells: RH 7777 cells (recombinant expression; membrane fraction)
The experiment in a line: Binding test of GTPγS to LPA1 receptor. The class given is biochemical. The settings on record: membrane fraction of RH 7777 cells expressed with human LPA1 receptor; LPA 100 nM; read-out: IC50: concentration of the test compound which inhibits the binding of LPA1 receptor and [35S]GTPγS by 50%. On the procedure:
Binding test of GTPγS to LPA1 receptor
5 μg of the membrane fraction of RH 7777 cells expressed with human LPA1 receptor (A324, ChanTest) was suspended in a reaction buffer (20 mM HEPES, 100 mM NaCl, 10 mM MgCl2, 10 μM GDP, 5 μg saponin, 0.2% BSA, 0.1 nM [^35S]GTPγS (NEG030X, Perkin Elmer), pH 7.4), and the test compound dissolved in DMSO in various concentrations was added. After preincubation at 30° C. for 15 minutes, LPA (L7260, Sigma, the final concentration of 100 nM) was added, and the suspension was incubated at 30° C. for 30 minutes. The membrane fraction was collected onto a glass fiber filter (GF/B, Whatman) by using a cell harvester (M30, Brandel), and washed with a 10 mM phosphate buffer (pH 7.4). The radioactivity of the membrane fraction was measured using a liquid scintillation analyzer (2900TR, Packard) and the concentration of the test compound which inhibits the binding of LPA1 receptor and [^35S]GTPγS by 50%, (1050) was determined by non-linear regression analysis using EXSAS (version 7.6.0, Arm Systex).

Molecules are shown by their SMILES.

T1 sequence (Q92633 whole entry): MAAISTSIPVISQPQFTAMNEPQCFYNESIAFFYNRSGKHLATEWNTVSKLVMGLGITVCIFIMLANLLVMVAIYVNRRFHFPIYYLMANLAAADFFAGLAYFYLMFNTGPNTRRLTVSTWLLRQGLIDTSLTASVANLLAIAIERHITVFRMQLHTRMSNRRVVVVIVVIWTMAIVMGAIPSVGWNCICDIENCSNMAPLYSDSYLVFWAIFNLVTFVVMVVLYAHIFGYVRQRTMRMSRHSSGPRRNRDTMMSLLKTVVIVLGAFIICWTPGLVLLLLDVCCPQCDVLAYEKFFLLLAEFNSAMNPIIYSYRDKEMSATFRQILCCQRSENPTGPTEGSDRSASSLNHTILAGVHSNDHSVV

With `C[C@@H](OC(=O)Nc1cc(F)sc1-c1ccc(-c2ccc(C3(C(=O)O)CC3)cc2)cc1)c1ccccc1F` [I-104, (R)-1-{4′-[5-Fluoro-3-({[1-(2-fluorophenyl)ethoxy]carbonyl}amino)thiophen-2-yl]-[1,1′-biphenyl]-4-yl}cyclopropanecarboxylic acid], the IC50 (in assay [1]; at human LPA1 receptor) was not above 200 nM each time. Besides, the responders at 10 mg/kg in assay [2] is not below 50%.
On to `C[C@@H](OC(=O)Nc1cc(F)sc1-c1ccc(-c2ccc(C3(C(=O)O)CC3)cc2)cc1)c1ccccc1Cl` [I-122, (R)-1-{4′-[3-({[1-(2-Chlorophenyl)ethoxy]carbonyl}amino)-5-fluorothiophen-2-yl]-[1,1′-biphenyl]-4-yl}cyclopropanecarboxylic acid], for which the IC50 (in assay [1]; at human LPA1 receptor) was not above 200 nM in each case. The responders at 10 mg/kg in assay [2] is not below 50%.
For the molecule `C[C@@H](OC(=O)Nc1cc(Cl)sc1-c1ccc(-c2ccc(C3(C(=O)O)CC3)cc2)cc1)c1cccc(F)c1` [I-38, (R)-1-{4′-[5-Chloro-3-({[1-(3-fluorophenyl)ethoxy]carbonyl}amino)thiophen-2-yl]-[1,1′-biphenyl]-4-yl}cyclopropanecarboxylic acid], the IC50 (in assay [1]; on human LPA1 receptor) was not above 200 nM in each case. The responders at 10 mg/kg in assay [2] is not below 50%.
As to `Cc1ccccc1[C@@H](C)OC(=O)Nc1cc(Cl)sc1-c1ccc(-c2ccc(C3(C(=O)O)CC3)cc2)cc1` [I-60, (R)-1-{4′-[5-Chloro-3-({[1-(o-tolyl)ethoxy]carbonyl}amino)thiophen-2-yl]-[1,1′-biphenyl]-4-yl}cyclopropanecarboxylic acid], the IC50 (in assay [1]; on human LPA1 receptor) was not above 200 nM each time. Besides, the responders at 10 mg/kg in assay [2] was not below 50%.
Take `C[C@@H](OC(=O)Nc1cc(F)sc1-c1ccc(-c2ccc(C3(C(=O)O)CC3)cc2)cc1)c1ccc(F)cc1Cl` [I-152, (R)-1-{4′-[3-({[1-(2-Chloro-4-fluorophenyl)ethoxy]carbonyl}amino)-5-fluorothiophen-2-yl]-[1,1′-biphenyl]-4-yl}cyclopropanecarboxylic acid]: the IC50 (in assay [1]; at human LPA1 receptor) was not above 200 nM in each case. Besides, in assay [2], the responders at 10 mg/kg was not below 50%.
Regarding `C[C@@H](OC(=O)Nc1cc(Cl)sc1-c1ccc(-c2ccc(C3(C(=O)O)CC3)cc2)cc1)c1ccccc1Cl` [I-52, (R)-1-{4′-[5-Chloro-3-({[1-(2-chlorophenyl)ethoxy]carbonyl}amino)thiophen-2-yl]-[1,1′-biphenyl]-4-yl}cyclopropanecarboxylic acid], the IC50 (in assay [1]; on human LPA1 receptor) was not above 200 nM throughout. In assay [2], the responders at 10 mg/kg is not below 50%.
Consider `C[C@@H](OC(=O)Nc1cc(F)sc1-c1ccc(-c2ccc(C3(C(=O)O)CC3)cc2)cc1)c1ccc(F)cc1` [I-112, (R)-1-{4′-[5-Fluoro-3-({[1-(4-fluorophenyl)ethoxy]carbonyl}amino)thiophen-2-yl]-[1,1′-biphenyl]-4-yl}cyclopropanecarboxylic acid], for which the IC50 (in assay [1]; at human LPA1 receptor) was not above 200 nM in each case. In assay [2], the responders at 10 mg/kg was not below 50%.
As to `C[C@@H](OC(=O)Nc1cc(F)sc1-c1ccc(-c2ccc(C3(C(=O)O)CC3)cc2)cc1)c1ccc(Cl)cc1` [I-126, (R)-1-{4′-[3-({[1-(4-Chlorophenyl)ethoxy]carbonyl}amino)-5-fluorothiophen-2-yl]-[1,1′-biphenyl]-4-yl}cyclopropanecarboxylic acid], the IC50 (in assay [1]; on human LPA1 receptor) was not above 200 nM throughout. For the same molecule, the responders at 10 mg/kg in assay [2] was not below 50%.
Take `C[C@@H](OC(=O)Nc1cc(Cl)sc1-c1ccc(-c2ccc(C3(C(=O)O)CC3)cc2)cc1)c1ccc(Cl)cc1` [I-56, (R)-1-{4′-[5-Chloro-3-({[1-(4-chlorophenyl)ethoxy]carbonyl}amino)thiophen-2-yl]-[1,1′-biphenyl]-4-yl}cyclopropanecarboxylic acid]: the IC50 (in assay [1]; at human LPA1 receptor) was not above 200 nM in each case. In addition, in assay [2], the responders at 10 mg/kg is not below 50%.
`C[C@@H](OC(=O)Nc1cc(Cl)sc1-c1ccc(-c2ccc(C3(C(=O)O)CC3)cc2)cc1)c1ccc(F)cc1` [I-42, (R)-1-{4′-[5-Chloro-3-({[1-(4-fluorophenyl)ethoxy]carbonyl}amino)thiophen-2-yl]-[1,1′-biphenyl]-4-yl}cyclopropanecarboxylic acid]: the IC50 (in assay [1]; at human LPA1 receptor) was not above 200 nM in each case. Moreover, the responders at 10 mg/kg in assay [2] is not below 50%.
In the case of `C[C@@H](OC(=O)Nc1cc(F)sc1-c1ccc(-c2ccc(C3(C(=O)O)CC3)cc2)cc1)c1ccccc1` [I-100, (R)-1-[4′-(5-Fluoro-3-{[(1-phenylethoxy)carbonyl]amino}thiophen-2-yl)-[1,1′-biphenyl]-4-yl]cyclopropanecarboxylic acid], the IC50 (in assay [1]; on human LPA1 receptor) was not above 200 nM each time. Further, the responders at 10 mg/kg in assay [2] was not below 50%.
Regarding `C[C@@H](OC(=O)Nc1cc(Cl)sc1-c1ccc(-c2ccc(C3(C(=O)O)CC3)cc2)cc1)c1ccccc1F` [I-28, (R)-1-{4′-[5-Chloro-3-({[1-(2-fluorophenyl)ethoxy]carbonyl}amino)thiophen-2-yl]-[1,1′-biphenyl]-4-yl}cyclopropanecarboxylic acid], the IC50 (in assay [1]; at human LPA1 receptor) was not above 200 nM throughout. Also, the responders at 10 mg/kg in assay [2] is not below 50%.
Take `C[C@@H](OC(=O)Nc1cc(Cl)sc1-c1ccc(-c2ccc(C3(C(=O)O)CC3)cc2)cc1)c1ccccc1` [I-24, (R)-1-[4′-(5-Chloro-3-{[(1-phenylethoxy)carbonyl]amino}thiophen-2-yl)-[1,1′-biphenyl]-4-yl]cyclopropanecarboxylic acid]: the IC50 (in assay [1]; on human LPA1 receptor) was not above 200 nM throughout. Also, the responders at 10 mg/kg in assay [2] was not below 50%.

The values above are taken from patent US10597375B2, “Halogen-substituted heterocyclic compound” (UBE INDUSTRIES, LTD., priority 2012, dated 2020).
